# Data reported in ChEMBL document CHEMBL1201862, “PubChem BioAssay data set” (2004).
#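 Briefly, cells in 96-well plates were exposed to five compound concentrations for 48 h, and endpoints were estimated by linear interpolation. The concentration for 50% growth inhibition is given as GI50.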 The source made the active and inactive calls. No stated cut-off is given here; in the data, active = GI50 up to about 1.1 µM and inactive = higher.
# Tests used:
# Experiment in all cases: NCI-60 cell line screen, 48 h
# ACHN = test system: ACHN
# BT-549 = test system: BT-549
# CCRF-CEM = test system: CCRF-CEM
# DU-145 = test system: DU-145
# HCC 2998 = test system: HCC 2998
# HOP-62 = test system: HOP-62
# HT-29 = test system: HT-29
# KM12 = test system: KM12
# LXFL 529 = test system: LXFL 529
# MDA-MB-435 = test system: MDA-MB-435
# NCI-H522 = test system: NCI-H522
# NCI/ADR-RES = test system: NCI/ADR-RES
# OVCAR-8 = test system: OVCAR-8
# PC-3 = test system: PC-3
# RXF 393 = test system: RXF 393
# SF-268 = test system: SF-268
# SF-295 = test system: SF-295
# SK-MEL-28 = test system: SK-MEL-28
# SK-MEL-2 = test system: SK-MEL-2
# UACC-257 = test system: UACC-257
SMILES,GI50 (ACHN),GI50 (BT-549),GI50 (CCRF-CEM),GI50 (DU-145),GI50 (HCC 2998),GI50 (HOP-62),GI50 (HT-29),GI50 (KM12),GI50 (LXFL 529),GI50 (MDA-MB-435),GI50 (NCI-H522),GI50 (NCI/ADR-RES),GI50 (OVCAR-8),GI50 (PC-3),GI50 (RXF 393),GI50 (SF-268),GI50 (SF-295),GI50 (SK-MEL-28),GI50 (SK-MEL-2),GI50 (UACC-257)
OCc1ccc(-c2ccc(-c3ccc(CO)s3)o2)s1,11.3 µM (inactive),4.04 µM (inactive),2.59 µM (inactive),6.07 µM (inactive),0.394 µM (active),0.103 µM (active),0.432 µM (active),20.7 µM (inactive),0.0158 µM (active),4.05 µM (inactive),29.2 µM (inactive),13.2 µM (inactive),12.1 µM (inactive),44.5 µM (inactive),0.285 µM (active),49 µM (inactive),7.4 µM (inactive),42.7 µM (inactive),23.9 µM (inactive),0.0254 µM (active)
COc1ccc(C2NC(c3ccc(OC)cc3)C(C)C(=O)C2C)cc1 (stereo not given),> 100 µM (inactive),,> 100 µM (inactive),,> 100 µM (inactive),> 100 µM (inactive),> 100 µM (inactive),> 100 µM (inactive),> 100 µM (inactive),,> 100 µM (inactive),,> 100 µM (inactive),,> 100 µM (inactive),> 100 µM (inactive),> 100 µM (inactive),> 100 µM (inactive),> 100 µM (inactive),> 100 µM (inactive)
CCn1cc(/C=C/C(C)c2cn(CC)c(=O)[nH]c2=O)c(=O)[nH]c1=O (stereo not given),> 100 µM (inactive),,> 100 µM (inactive),,> 100 µM (inactive),> 100 µM (inactive),> 100 µM (inactive),> 100 µM (inactive),> 100 µM (inactive),,> 100 µM (inactive),,> 100 µM (inactive),,> 100 µM (inactive),> 100 µM (inactive),> 100 µM (inactive),> 100 µM (inactive),> 100 µM (inactive),> 100 µM (inactive)
CCCCC1(OC(=O)CCC(=O)O)CCC2(CCC(C)C(C/C=C(C)/C=C/C(O)C(C)/C=C/C(=O)O)O2)OC1CC/C(C)=C/C(=O)O (stereo not given),5.74 µM (inactive),,3.94 µM (inactive),,3.33 µM (inactive),2.09 µM (inactive),10.3 µM (inactive),3.1 µM (inactive),1.8 µM (inactive),,2.77 µM (inactive),,2.84 µM (inactive),,1.75 µM (inactive),2.51 µM (inactive),4.57 µM (inactive),2.02 µM (inactive),1.71 µM (inactive),1.55 µM (inactive)
